Earlier results in US20110045089A1, “VITAMIN K3 DERIVATIVE / NSA FORMULATION” (priority 2009, published 2011).

Key:
[1] = for Total vitamin retention %: 1 × 2 × 3 × 4 (product of the four stress factors); for Vitamin retention, stress factor 1: vitamin premix without choline chloride: 2 months; for Vitamin retention, stress factor 4: petfood storage time: 8 months; for Vitamin retention, stress factor 2: extrusion temperature: 105° C.; for Vitamin retention, stress factor 3: drying/enrobing: 180° C.
[2] = 80° C., high humidity
[3] = premix containing choline chloride, after 6 months of storage (FIG. 2)

Total vitamin retention % [1] [%]	Vitamin retention, stress factor 1: vitamin premix without choline chloride [1] [%]	Vitamin retention, stress factor 4: petfood storage time [1] [%]	Vitamin retention, stress factor 2: extrusion temperature [1] [%]	Vitamin retention, stress factor 3: drying/enrobing [1] [%]	Fraction decomposed during pelleting process [2] [%]	Original amount of K3 remaining in premix [3] [%]	Structure (SMILES)
5	98	27	50	37			CC1(S(=O)(=O)[O-])CC(=O)c2ccccc2C1=O.[Na+] (stereo not shown) [MSB, Menadione Sodium Bisulphite]
58	100	79	87	84			NC(=O)c1cccnc1 [Niacinamide, nicotinamide]
25	100	47	70	76	50	≤ 70	CC1(S(=O)(=O)O)CC(=O)c2ccccc2C1=O.NC(=O)c1cccnc1 (stereo not shown) [MNB, Nicotinamide Menadione Bisulfite]
19	100	42	65	70			CC1(S(=O)(=O)O)CC(=O)c2ccccc2C1=O.Cc1cc(C)nc(O)n1 (stereo not shown) [MPB, 2-hydroxy-4,6-dimethyl-pyrimidinium Menadione Bisulfite]
